Biological target: human NaV 1.7 (Homo sapiens, UniProt Q15858)
Assay: E-VIPR optical membrane potential assay with electrical stimulation
Assay type: cell-based
Conditions: sodium channel inhibition; read-out: Binned Activity Data (IC50)
How it was run: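 Membrane-potential read-out: background-subtracted 460 nm/580 nm ratio during a 9 s current-controlled stimulus, 400 Hz scan. Before stimulation, NaV1.7-HEK cells carried coumarin/oxonol dye and compound (final DMSO 0.625%) for 20–35 min at room temperature; tetracaine 125 μM served as positive control.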

Sequence of human NaV 1.7 (Q15858 whole entry): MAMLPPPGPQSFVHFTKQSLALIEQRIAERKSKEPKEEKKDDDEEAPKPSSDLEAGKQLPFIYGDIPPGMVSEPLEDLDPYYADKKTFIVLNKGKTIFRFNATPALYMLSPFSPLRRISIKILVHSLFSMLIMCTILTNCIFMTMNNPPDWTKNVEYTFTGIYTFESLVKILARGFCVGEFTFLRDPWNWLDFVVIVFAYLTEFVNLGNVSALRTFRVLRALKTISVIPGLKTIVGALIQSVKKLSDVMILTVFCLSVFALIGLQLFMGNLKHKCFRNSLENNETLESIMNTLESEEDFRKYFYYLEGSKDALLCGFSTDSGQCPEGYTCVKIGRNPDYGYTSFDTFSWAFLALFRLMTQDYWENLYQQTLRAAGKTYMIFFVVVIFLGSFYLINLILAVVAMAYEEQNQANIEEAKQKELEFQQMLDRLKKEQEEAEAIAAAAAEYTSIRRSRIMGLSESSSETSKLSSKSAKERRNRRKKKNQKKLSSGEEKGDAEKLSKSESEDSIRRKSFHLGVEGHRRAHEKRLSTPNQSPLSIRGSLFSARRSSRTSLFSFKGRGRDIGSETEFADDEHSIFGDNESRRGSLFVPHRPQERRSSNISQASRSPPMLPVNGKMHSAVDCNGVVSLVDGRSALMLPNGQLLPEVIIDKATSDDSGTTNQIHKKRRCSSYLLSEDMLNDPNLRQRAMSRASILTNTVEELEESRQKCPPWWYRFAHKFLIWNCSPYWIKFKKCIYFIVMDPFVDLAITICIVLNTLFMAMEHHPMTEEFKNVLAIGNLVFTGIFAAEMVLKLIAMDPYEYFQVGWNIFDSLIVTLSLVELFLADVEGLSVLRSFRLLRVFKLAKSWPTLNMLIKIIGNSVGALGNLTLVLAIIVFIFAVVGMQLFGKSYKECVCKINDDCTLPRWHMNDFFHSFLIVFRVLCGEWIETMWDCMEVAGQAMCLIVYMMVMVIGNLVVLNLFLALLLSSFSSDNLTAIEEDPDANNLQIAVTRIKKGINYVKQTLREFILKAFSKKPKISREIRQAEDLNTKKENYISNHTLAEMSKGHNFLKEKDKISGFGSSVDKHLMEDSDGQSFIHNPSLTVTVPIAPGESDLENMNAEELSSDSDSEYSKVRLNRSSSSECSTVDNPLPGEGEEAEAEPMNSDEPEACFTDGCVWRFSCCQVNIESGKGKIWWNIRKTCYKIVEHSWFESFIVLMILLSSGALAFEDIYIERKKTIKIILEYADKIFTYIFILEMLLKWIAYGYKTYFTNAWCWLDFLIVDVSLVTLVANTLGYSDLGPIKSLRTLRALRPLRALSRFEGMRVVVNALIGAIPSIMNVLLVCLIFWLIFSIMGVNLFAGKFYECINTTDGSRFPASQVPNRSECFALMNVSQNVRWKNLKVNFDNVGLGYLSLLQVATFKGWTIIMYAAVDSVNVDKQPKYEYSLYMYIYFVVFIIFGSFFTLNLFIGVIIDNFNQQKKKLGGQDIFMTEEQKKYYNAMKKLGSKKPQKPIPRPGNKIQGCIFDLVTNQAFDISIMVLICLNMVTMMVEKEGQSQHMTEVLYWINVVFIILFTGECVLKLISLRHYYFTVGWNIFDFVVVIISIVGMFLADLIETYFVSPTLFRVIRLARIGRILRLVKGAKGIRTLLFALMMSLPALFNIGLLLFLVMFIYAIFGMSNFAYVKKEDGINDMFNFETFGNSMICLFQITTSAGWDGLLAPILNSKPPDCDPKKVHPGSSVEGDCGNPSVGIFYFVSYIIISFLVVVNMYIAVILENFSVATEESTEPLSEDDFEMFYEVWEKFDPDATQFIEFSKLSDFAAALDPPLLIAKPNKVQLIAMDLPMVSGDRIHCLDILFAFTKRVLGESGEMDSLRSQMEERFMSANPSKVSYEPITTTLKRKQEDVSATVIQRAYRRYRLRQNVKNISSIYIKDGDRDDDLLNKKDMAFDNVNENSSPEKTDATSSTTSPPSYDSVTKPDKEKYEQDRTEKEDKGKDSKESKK

Row | SMILES | IC50
1 | Cc1cccc(C(=O)N2CCC3(CC2)Oc2ccccc2-c2c3cnn2C)c1C [Compound 797] | ≤ 2000 nM
2 | COc1ccc(F)cc1C(=O)N1CCC2(CC1)Oc1cc(Cl)ccc1-n1c(C#N)ccc12 [Compound 799] | ≤ 2000 nM
3 | COc1c(C)cc(C(=O)N2CCC3(CC2)Oc2ccccc2-c2c3cnn2C)cc1C [Compound 801] | ≤ 2000 nM
4 | CC(C)S(=O)(=O)c1ccc(C(=O)N2CCC3(CC2)Oc2cc(F)ccc2-n2c(C(F)(F)F)ccc23)cc1 [Compound 804] | > 5000 nM
5 | CCCOc1ccc(C(=O)N2CCC3(CC2)Oc2cccnc2-n2cccc23)cc1C(F)(F)F [Compound 805] | ≤ 2000 nM
6 | N#Cc1ccc2n1-c1ccccc1OC21CCN(C(=O)c2ccc(F)cc2Cl)CC1 [Compound 807] | > 5000 nM
7 | CS(=O)(=O)c1ccc(C(=O)N2CCC3(CC2)Oc2cc(Cl)ccc2-n2cccc23)c(Cl)c1 [Compound 808] | ≤ 2000 nM
8 | CC(C)(CO)c1ccc(C(=O)N2CCC3(CC2)Oc2ccccc2-n2c(C#N)ccc23)cc1 [Compound 810] | ≤ 2000 nM
9 | Cn1ncc2c1-c1ccccc1OC21CCN(C(=O)c2ccc(OC(F)F)cc2)CC1 [Compound 811] | > 5000 nM
10 | CCCOc1ccc(C(=O)N2CCC3(CC2)Oc2cc(F)ccc2-n2cccc23)cc1OC [Compound 812] | ≤ 2000 nM
11 | Cc1c(C(=O)N2CCC3(CC2)Oc2ccccc2-c2c3cnn2C)cnn1-c1ccc(F)cc1 [Compound 814] | > 5000 nM
12 | O=C(c1ccc(C(O)C2CC2)cc1)N1CCC2(CC1)Oc1ccccc1-n1c(C(F)(F)F)ccc12 (stereo not drawn) [Compound 815] | ≤ 2000 nM
13 | COC(C)(C)c1ccc(C(=O)N2CCC3(CC2)Oc2ccccc2-n2cccc23)cc1C [Compound 817] | ≤ 2000 nM
14 | CCCOc1ccc(C(=O)N2CCC3(CC2)Oc2ccccc2-n2c(C)ccc23)cc1C(F)(F)F [Compound 818] | ≤ 2000 nM
15 | COc1ccc(C(=O)N2CCC3(CC2)Oc2ccccc2-n2c3ccc2S(C)(=O)=O)cc1C(F)(F)F [Compound 819] | ≤ 2000 nM
16 | COCCOc1ccc(C(=O)N2CCC3(CC2)Oc2ccccc2-n2c(C(C)=O)ccc23)cc1OC [Compound 820] | ≤ 2000 nM
17 | CCS(=O)(=O)c1ccc(C(=O)N2CCC3(CC2)Oc2ccccc2-c2c3cnn2C)cc1C [Compound 821] | ≤ 2000 nM
18 | COc1ccc2c(c1)-c1c(cnn1C)C1(CCN(C(=O)c3ccc(OC(C)C)c(C)c3)CC1)O2 [Compound 822] | ≤ 2000 nM
19 | Cn1cc2c(n1)-c1ccccc1OC21CCN(C(=O)c2ccc(S(=O)(=O)NC(C)(C)C)cc2)CC1 [Compound 824] | ≤ 2000 nM
20 | COc1ccc(C(=O)N2CCC3(CC2)Oc2ccccc2-n2c(C#N)ccc23)cc1C(F)(F)F [Compound 826] | ≤ 2000 nM
21 | Cn1ncc2c1-c1ccccc1OC21CCN(C(=O)c2ccc(OC3CCCC3)cc2)CC1 [Compound 828] | ≤ 2000 nM
22 | CC(C)Oc1ccc(C(=O)N2CCC3(CC2)Oc2ccccc2-c2nn(C)cc23)cn1 [Compound 830] | ≤ 2000 nM
23 | COc1cccc(C(=O)N2CCC3(CC2)Oc2ccccc2-c2c3cnn2C)c1OC [Compound 831] | ≤ 2000 nM
24 | COCc1ccc2c(c1)OC1(CCN(C(=O)c3ccc(S(=O)(=O)C(C)C)cc3)CC1)c1ccc(C#N)n1-2 [Compound 832] | > 5000 nM
25 | CCc1ccccc1C(=O)N1CCC2(CC1)Oc1cc(Cl)ccc1-n1cccc12 [Compound 833] | ≤ 2000 nM

Row | SMILES | IC50
26 | Cc1nc(C(=O)N2CCC3(CC2)Oc2ccccc2-c2c3cnn2C)ccc1OC(C)C [Compound 834] | ≤ 2000 nM
27 | O=C(c1ccc(OCC2CCCO2)c(C(F)(F)F)c1)N1CCC2(CC1)Oc1ccccc1-n1cccc12 (stereo not drawn) [Compound 836] | ≤ 2000 nM
28 | COc1cc(C(=O)N2CCC3(CC2)Oc2ccccc2-n2cccc23)ccc1O[C@H]1CCOC1 [Compound 837] | ≤ 2000 nM
29 | Cc1cc(C(=O)N2CCC3(CC2)Oc2ccccc2-c2c3cnn2C)ccc1OC(F)(F)F [Compound 838] | 2000 to 5000 nM
30 | CCc1ccc(C(=O)N2CCC3(CC2)Oc2ccccc2-n2c(C#N)ccc23)cc1OC [Compound 839] | ≤ 2000 nM
31 | O=C(c1ccc(S(=O)(=O)C2CCOC2)cc1)N1CCC2(CC1)Oc1ccccc1-n1c(C(F)(F)F)ccc12 (stereo not drawn) [Compound 840] | ≤ 2000 nM
32 | Cn1ncc2c1-c1ccccc1OC21CCN(C(=O)c2cccc3c2OCCC3)CC1 [Compound 841] | ≤ 2000 nM
33 | Cn1ncc2c1-c1ccccc1OC21CCN(C(=O)c2ccc3nc(Cl)sc3c2)CC1 [Compound 842] | > 5000 nM
34 | Cn1cc2c(n1)-c1ccccc1OC21CCN(C(=O)c2ccc3nc(Cl)sc3c2)CC1 [Compound 843] | 2000 to 5000 nM
35 | CC(C)(C)NS(=O)(=O)c1ccc(C(=O)N2CCC3(CC2)Oc2ccccc2-n2c(C#N)ccc23)cc1 [Compound 844] | ≤ 2000 nM
36 | COc1ccccc1C(=O)N1CCC2(CC1)Oc1cc(F)ccc1-c1c2cnn1C [Compound 845] | ≤ 2000 nM
37 | O=C(c1ccc(OCCO)cc1)N1CCC2(CC1)Oc1ccccc1-n1c(C(F)(F)F)ccc12 [Compound 846] | ≤ 2000 nM
38 | COc1cc(C(=O)N2CCC3(CC2)Oc2ccccc2-n2cccc23)ccc1OCC(C)(C)OC [Compound 847] | ≤ 2000 nM
39 | CCc1ccc(C(=O)N2CCC3(CC2)Oc2cc(CO)ccc2-n2cccc23)cc1OC [Compound 848] | ≤ 2000 nM
40 | CC(C)(C)c1ccc(C(=O)N2CCC3(CC2)Oc2ccccc2-n2c(C#N)ccc23)cn1 [Compound 849] | > 5000 nM
41 | COc1cc(C(=O)N2CCC3(CC2)Oc2cc(Cl)ccc2-n2cccc23)ccc1OCCS(C)(=O)=O [Compound 851] | ≤ 2000 nM
42 | Cc1cc2n(c1)-c1ccccc1OC21CCN(C(=O)c2ccc(OC(C)C)c(C)c2)CC1 [Compound 852] | ≤ 2000 nM
43 | COc1c(CO)cccc1C(=O)N1CCC2(CC1)Oc1ccccc1-c1c2cnn1C [Compound 853] | ≤ 2000 nM
44 | N#Cc1ccc2n1-c1ccccc1OC21CCN(C(=O)c2ccc(OC3CNC3)cc2)CC1 [Compound 854] | 2000 to 5000 nM
45 | COc1cc(C(=O)N2CCC3(CC2)Oc2cc(F)ccc2-n2cccc23)ccc1C(C)(C)C [Compound 855] | ≤ 2000 nM
46 | Cn1ncc2c1-c1ccccc1OC21CCN(C(=O)c2ccc(O)c(F)c2)CC1 [Compound 856] | ≤ 2000 nM
47 | COc1ccc(C(=O)N2CCC3(CC2)Oc2cc(Cl)ccc2-n2cccc23)cc1C(F)(F)F [Compound 857] | ≤ 2000 nM
48 | COc1ccc(Cl)cc1C(=O)N1CCC2(CC1)Oc1cc(Cl)ccc1-n1cccc12 [Compound 858] | ≤ 2000 nM
49 | CCS(=O)(=O)c1ccc(C(=O)N2CCC3(CC2)Oc2ccccc2-c2c3cnn2C)cc1 [Compound 859] | 2000 to 5000 nM
50 | Cn1ncc2c1-c1ccccc1OC21CCN(C(=O)c2cccc3c2CC(C)(C)O3)CC1 [Compound 860] | ≤ 2000 nM

Row | SMILES | IC50
51 | Cn1ncc2c1-c1ccccc1OC21CCN(C(=O)c2ccc3c(ccn3C)c2)CC1 [Compound 861] | ≤ 2000 nM
52 | Cn1ncc2c1-c1ccccc1OC21CCN(C(=O)c2cccnc2Oc2ccc(F)cc2)CC1 [Compound 862] | ≤ 2000 nM
53 | CCc1ccc(C(=O)N2CCC3(CC2)Oc2cc(C(=O)N(C)C)ccc2-n2cccc23)cc1OC [Compound 863] | ≤ 2000 nM
54 | N#Cc1ccc2n1-c1ccccc1OC21CCN(C(=O)c2ccc(C3(O)COC3)cc2)CC1 [Compound 864] | ≤ 2000 nM
55 | CCOc1ccc(C(=O)N2CCC3(CC2)Oc2ccccc2-c2c3cnn2C)cc1OC [Compound 866] | ≤ 2000 nM
56 | Cn1ncc2c1-c1ccccc1OC21CCN(C(=O)c2cccc3c2cnn3C)CC1 [Compound 867] | ≤ 2000 nM
57 | Cc1cccc(C(=O)N2CCC3(CC2)Oc2ccccc2-c2c3cnn2C)c1O [Compound 868] | 2000 to 5000 nM
58 | CC(C)(C)S(=O)(=O)c1ccc(C(=O)N2CCC3(CC2)Oc2ccccc2-n2c(C#N)ccc23)cc1 [Compound 869] | ≤ 2000 nM
59 | O=C(c1cccc(Cl)c1)N1CCC2(CC1)Oc1cc(Cl)ccc1-n1cccc12 [Compound 870] | ≤ 2000 nM
60 | COc1ccc(C(=O)N2CCC3(CC2)Oc2ccccc2-n2c(C(F)(F)F)ccc23)cc1Cl [Compound 871] | ≤ 2000 nM
61 | COc1ccc(C(=O)N2CCC3(CC2)Oc2ccccc2-n2c(C(F)(F)F)ccc23)nc1C [Compound 872] | ≤ 2000 nM
62 | O=C(c1ccc(S(=O)(=O)CC2CCC2)cn1)N1CCC2(CC1)Oc1ccccc1-n1c(C(F)(F)F)ccc12 [Compound 873] | ≤ 2000 nM
63 | CC(C)CS(=O)(=O)c1ccc(C(=O)N2CCC3(CC2)Oc2ccccc2-n2c(C(F)(F)F)ccc23)nc1 [Compound 874] | ≤ 2000 nM
64 | COc1ccc(C(=O)N2CCC3(CC2)Oc2ccccc2-n2c(C(F)(F)F)ccc23)c(F)c1 [Compound 875] | 2000 to 5000 nM
65 | Cc1cc(C(F)F)n2ncc(C(=O)N3CCC4(CC3)Oc3ccccc3-n3c(C(F)(F)F)ccc34)c2n1 [Compound 876] | ≤ 2000 nM
66 | O=C(c1ccc(S(=O)(=O)CC2CCOC2)cn1)N1CCC2(CC1)Oc1ccccc1-n1c(C(F)(F)F)ccc12 (stereo not drawn) [Compound 877] | ≤ 2000 nM
67 | O=C(c1ccc(O)c(Cl)c1)N1CCC2(CC1)Oc1ccccc1-n1c(C(F)(F)F)ccc12 [Compound 878] | ≤ 2000 nM
68 | CC(C)(C)Sc1ccc(C(=O)N2CCC3(CC2)Oc2ccccc2-n2c(C(F)(F)F)ccc23)cc1 [Compound 879] | ≤ 2000 nM
69 | CC(C)(C)[S@@+]([O-])c1ccc(C(=O)N2CCC3(CC2)Oc2ccccc2-n2c(C(F)(F)F)ccc23)cc1 [Compound 880] | 2000 to 5000 nM
70 | CC(C)S(=O)(=O)c1ccc(C(=O)N2CCC3(CC2)Oc2ccccc2-n2c(C(F)(F)F)ccc23)nc1 [Compound 881] | ≤ 2000 nM
71 | CC(C)(C)[S+]([O-])c1ccc(C(=O)N2CCC3(CC2)Oc2ccccc2-n2c(C(F)(F)F)ccc23)cc1 (stereo not drawn) [Compound 882] | 2000 to 5000 nM
72 | CC(C)(C)[S@+]([O-])c1ccc(C(=O)N2CCC3(CC2)Oc2ccccc2-n2c(C(F)(F)F)ccc23)cc1 [Compound 883] | 2000 to 5000 nM
73 | COc1ccc(C(=O)N2CCC3(CC2)Oc2ccccc2-n2c(C(F)(F)F)ccc23)cc1C [Compound 884] | ≤ 2000 nM
74 | O=C(c1ccccc1OC(F)F)N1CCC2(CC1)Oc1ccccc1-c1c2cnn1C(F)F [Compound 889] | ≤ 2000 nM
75 | COc1ccc(C(=O)N2CCC3(CC2)Oc2ccccc2-c2c3cnn2C(F)(F)F)cc1OC [Compound 890] | ≤ 2000 nM

From patent publication US9365588B2, “Benzoxazines as modulators of ion channels” (Vertex Pharmaceuticals Incorporated, priority 2011, dated 2016)
